Patent publication US8785428B2, “Vermin poison” (priority 2006, dated 2014)

Tests used:
rats [1] = test: toxic effects in rats when administered via the oral route; assay type: in vivo
From the text: As mentioned above, rats are particularly troublesome vermin. […] For example, Tretazicar is particularly toxic towards rats compared to other rodents. […] This feature is believed to help prevent bait-shyness.

rat = conditions: administered intraperitoneally; cited from earlier work
mouse = conditions: cited from earlier work
[2] = dogs, packed into a gelatin capsule; cited from earlier work
Walker tumour = conditions: specific rat tumour ('Walker tumour'); cited from earlier work
variety of other tumours = conditions: cited from earlier work
[3] = human clinical oncology studies; cited from earlier work
rats [4] = conditions: cited from earlier work
human cells = conditions: cited from earlier work

SMILES: NC(=O)c1cc(N2CC2)c([N+](=O)[O-])cc1[N+](=O)[O-] [Tretazicar, 5-(aziridin-1-yl)-2,4-dinitrobenzarnide]
- onset of toxic effects (rats [1]): delayed
- LD50 (rat): 28 mg/kg
- LD50 (mouse): 220 mg/kg
- oral bioavailability [2]: about 40%
- effect on Walker tumour (Walker tumour): capable of eradicating
- effect on other tumours (variety of other tumours): little or no effect
- therapeutic benefit [3]: no therapeutic benefit
- toxicity (rats [4]): toxic to rats
- sensitivity of cells to the effects of the compound (human cells): insensitive
